Laboratory results: patent US20230086702A1, “SUBSTITUTED 2-AMINO-PYRAZOLYL-[1,2,4]TRIAZOLO[1,5A]PYRIDINE DERIVATIVES AND USE THEREOF” (The Johns Hopkins University, priority 2019, published 2023)

Columns and labels:
[1] = molecular target: T1, DLK (Homo sapiens, UniProt Q12852); assay: DLK biochemical assay (TR-FRET, MKK7 phosphorylation)
T1 construct: 10 nM DLK, catalytic domain, Carna Biosiences; purchased Carna Biosciences ('Carna Biosiences' [sic])
T1 sequence (Q12852 125-366 limits assumed): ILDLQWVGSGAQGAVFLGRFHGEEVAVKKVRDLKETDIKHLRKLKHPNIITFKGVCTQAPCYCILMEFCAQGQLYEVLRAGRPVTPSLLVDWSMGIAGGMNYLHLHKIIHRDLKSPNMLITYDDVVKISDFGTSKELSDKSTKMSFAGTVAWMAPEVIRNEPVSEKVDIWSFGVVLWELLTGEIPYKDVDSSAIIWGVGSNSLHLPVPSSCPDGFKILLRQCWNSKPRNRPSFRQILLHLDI
Procedure: (§1) DLK assay is a biochemical assay format designed to screen for inhibitors of DLK. Enzymatic activity of DLK is measured by monitoring phosphorylation of the physiological substrate MKK7 (MAP2K7, Dual specificity mitogen-activated protein kinase kinase 7). Phosphorylation is detected by a TR-FRET system whereby His-tagged MKK7 is labeled by a XL665-labeled anti-His antibody (FRET acceptor, emission 665 nm). DLK phosphorylates MKK7 at T275/S277, which is detected by an Eu-labeled anti-phospho-MKK7 (T275/S277) antibody (FRET donor, excitation 340 nm). Phosphorylation of MKK7 results in an increased TR-FRET signal (Ratio XL665-channel/Eu-channel) and inhibition of enzymatic activity of DLK decreases the TR-FRET signal.
Assay Protocol for 1536 MTP format: test compounds are predispensed (60 nl) in test plates; +3 μl DLK solution (10 nM DLK, catalytic domain, Carna Biosiences, 0.6 mM DTT in assay buffer); +2 μl substrate solution (15 nM MKK7, LDB; 60 μM ATP; 0.4 mM DTT in assay buffer); 90 min incubation at RT; +2 μl detection mix (5 nM XL665-labeled anti-His antibody, Cisbio; 0.1 nM Eu-labeled anti-phospho-MKK7 (T275/S277), Cisbio/Millipore in detection buffer); 16 h incubation at 37° C.; endpoint measurement BMG (HTRF).
(§2) Assay Protocol for 384 low volume MTP format: 1 μl of test compounds is pipetted into test plate; +5 μl DLK solution (10 nM DLK, catalytic domain, Carna Biosiences in assay buffer); +5 μl substrate solution (15 nM MKK7, LDB; 60 μM ATP, in assay buffer); 90 min incubation at RT; +9 μl detection mix (20 nM XL665-labeled anti-His antibody, Cisbio; 0.4 nM Eu-labeled anti-phospho-MKK7 (T275/S277), Cisbio/Millipore in detection buffer); 16 h incubation at 4° C.; endpoint measurement BMG (HTRF).
(§3) All indicated concentrations final concentrations.
(§4) Assay buffer (384 format): 50 mM Hepes pH 7.5, 10 mM MgCl2, 1 mM EGTA, 1 mM DTT, 0.01% Triton X-100, 0.01% BSA, 1:500 Smart Block.
(§5) Detection buffer: 25 mM Tris/HCl pH 7.5, 100 mM EDTA, 100 mM NaCl, 200 mM KF, 0.01% Tween 20, 1:500 Smart Block.

[2] = molecular target: T2, LZK (Homo sapiens, UniProt O43283); assay: LZK biochemical assay (TR-FRET, MKK7 phosphorylation)
T2 construct: 10 nM LZK, catalytic domain, Carna Biosiences in assay buffer; purchased Carna Biosciences ('Carna Biosiences' [sic])
T2 sequence (O43283 168-409 limits assumed): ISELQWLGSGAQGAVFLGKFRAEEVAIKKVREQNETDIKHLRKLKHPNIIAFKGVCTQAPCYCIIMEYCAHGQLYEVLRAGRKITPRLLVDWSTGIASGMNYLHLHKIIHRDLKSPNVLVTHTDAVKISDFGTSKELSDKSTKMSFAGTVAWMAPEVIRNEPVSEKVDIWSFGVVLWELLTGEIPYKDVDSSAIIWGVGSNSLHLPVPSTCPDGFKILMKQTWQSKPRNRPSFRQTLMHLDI
Procedure: as §1, with “LZK” for “DLK”, “LZK.” for “DLK.”, “T275/S277” for “T275/S277,”
as §2, with “compound” for “compounds”, “LZK” for “DLK”, “LZK,” for “DLK,”, “15” for “60”, “+5” for “+9”, “32°” for “4°”
as §3, §4, §5

SMILES | IC50 [1] [nM] | IC50 [2] [nM]
CCC(c1ccc(N2CCOCC2)cc1)n1cc(-c2cc(-c3cnn(CC(F)(F)F)c3)c3nc(N)nn3c2)cn1 (racemic) [II-102, 6-(1-{1-[4-(Morpholin-4-yl)phenyl]propyl}-1H-pyrazol-4-yl)-8-[1-(2,2,2-trifluoroethyl)-1H-pyrazol-4-yl][1,2,4]triazolo[1,5-a]pyridin-2-amine] | 5.7 | 140
CCC(c1ccc(C(F)F)nc1)n1cc(-c2cc(-c3cnn(CC(F)(F)F)c3)c3nc(N)nn3c2)cn1 (racemic) [II-105, 6-(1-{1-[6-(Difluoromethyl)pyridin-3-yl]propyl}-1H-pyrazol-4-yl)-8-[1-(2,2,2-trifluoroethyl)-1H-pyrazol-4-yl][1,2,4]triazolo[1,5-a]pyridin-2-amine] | 9.4 | 42
CCC(c1ccc(C(F)(F)F)nc1)n1cc(-c2cc(-c3cnn(CC(F)F)c3)c3nc(N)nn3c2)cn1 (racemic) [II-108, 8-[1-(2,2-Difluoroethyl)-1H-pyrazol-4-yl]-6-(1-{1-[6-(trifluoromethyl)pyridin-3-yl]propyl}-1H-pyrazol-4-yl)[1,2,4]triazolo[1,5-a]pyridin-2-amine] | 6.3 | 37
CCC(c1ccc(C(F)(F)F)nc1)n1cc(-c2cc(-c3cnn(CC(F)(F)F)c3)c3nc(N)nn3c2)cn1 (racemic) [II-111, 8-[1-(2,2,2-trifluoroethyl)-1H-pyrazol-4-yl]-6-(1-{1-[6-(trifluoromethyl)pyridin-3-yl]propyl}-1H-pyrazol-4-yl)[1,2,4]triazolo[1,5-a]pyridin-2-amine] | 14 | 34
CCC(c1ccc(OC(F)(F)F)nc1)n1cc(-c2cc(-c3cnn(CC(F)(F)F)c3)n3nc(N)nc3c2)cn1 (racemic) [II-114, 5-[1-(2,2,2-Trifluoroethyl)-1H-pyrazol-4-yl]-7-(1-{1-[6-(trifluoromethoxy)pyridin-3-yl]propyl}-1H-pyrazol-4-yl)[1,2,4]triazolo[1,5-a]pyridin-2-amine] | 46 | 42
Nc1nc2c(-c3cnn(CC(F)(F)F)c3)cc(-c3cnn(C(c4ccc(C(F)(F)F)nc4)C4CCOCC4)c3)cn2n1 (racemic) [II-117, 6-(1-{Tetrahydro-2H-pyran-4-yl[6-(trifluoromethyl)pyridin-3-yl]methyl}-1H-pyrazol-4-yl)-8-[1-(2,2,2-trifluoroethyl)-1H-pyrazol-4-yl][1,2,4]triazolo[1,5-a]pyridin-2-amine] | 3.8 | 29
CCC(c1ccc(C(F)(F)F)nc1)n1cc(-c2cc(-c3cc(CO)ccc3Cl)c3nc(N)nn3c2)cn1 (single isomer, unassigned) [II-2, {3-[2-Amino-6-(1-{1-[6-(trifluoromethyl)pyridin-3-yl]propyl}-1H-pyrazol-4-yl)[1,2,4]triazolo[1,5-a]pyridin-8-yl]-4-chlorophenyl}methanol] | 170 | 30
CCC(c1ccc(C(F)(F)F)nc1)n1cc(-c2cc(-c3cc(CO)ccc3Cl)c3nc(N)nn3c2)cn1 (single isomer, unassigned) [II-3, {3-[2-Amino-6-(1-{1-[6-(trifluoromethyl)pyridin-3-yl]propyl}-1H-pyrazol-4-yl)[1,2,4]triazolo[1,5-a]pyridin-8-yl]-4-chlorophenyl}methanol] | 12 | 6.4
Nc1nc2c(-c3cc(CO)ccc3Cl)cc(-c3cnn(C(c4ccc(C(F)(F)F)nc4)C4CCOCC4)c3)cn2n1 (single isomer, unassigned) [II-6, {3-[2-Amino-6-(1-{tetrahydro-2H-pyran-4-yl[6-(trifluoromethyl)pyridin-3-yl]methyl}-1H-pyrazol-4-yl)[1,2,4]triazolo[1,5-a]pyridin-8-yl]-4-chlorophenyl}methanol] | 46 | 6.7
CCC(c1ccc(C(F)(F)F)nc1)n1cc(-c2cc(-c3cccc(C(C)(C)O)c3)c3nc(N)nn3c2)cn1 (single isomer, unassigned) [II-8, 2-{3-[2-Amino-6-(1-{1-[6-(trifluoromethyl)pyridin-3-yl]propyl}-1H-pyrazol-4-yl)[1,2,4]triazolo[1,5-a]pyridin-8-yl]phenyl}propan-2-ol] | 3.7 | 7.9

The remaining compounds from weak to strong by IC50 [1], led by results:

IC50 [1] [nM] | IC50 [2] [nM] | SMILES
3.6 | 17 | Nc1nc2cc(-c3cnn(C(c4ccc(C(F)(F)F)nc4)C4CCOCC4)c3)cc(-c3cn(CC(F)(F)F)c(=O)cn3)n2n1 (racemic) [II-194, 5-[2-Amino-7-(1-{tetrahydro-2H-pyran-4-yl[6-(trifluoromethyl)pyridin-3-yl]methyl}-1H-pyrazol-4-yl)[1,2,4]triazolo[1,5-a]pyridin-5-yl]-1-(2,2,2-trifluoroethyl)pyrazin-2(1H)-one]
2.3 | 1.7 | Nc1nc2c(-c3cc(CO)ccc3Cl)cc(-c3cnn(C(c4ccc(C(F)(F)F)nc4)C4CCOCC4)c3)cn2n1 (single isomer, unassigned) [II-5, {3-[2-Amino-6-(1-{tetrahydro-2H-pyran-4-yl[6-(trifluoromethyl)pyridin-3-yl]methyl}-1H-pyrazol-4-yl)[1,2,4]triazolo[1,5-a]pyridin-8-yl]-4-chlorophenyl}methanol]
1.4 | 3 | CC(C)(O)c1cccc(-c2cc(-c3cnn(C(c4ccc(C(F)(F)F)nc4)C4CCOCC4)c3)cn3nc(N)nc23)c1 (single isomer, unassigned) [II-11, 2-{3-[2-Amino-6-(1-{tetrahydro-2H-pyran-4-yl[6-(trifluoromethyl)pyridin-3-yl]methyl}-1H-pyrazol-4-yl)[1,2,4]triazolo[1,5-a]pyridin-8-yl]phenyl}propan-2-ol]
1 | 2.3 | CCC(c1ccc(C(F)(F)F)nc1)n1cc(-c2cc(-c3cccc(C(C)(C)O)c3)c3nc(N)nn3c2)cn1 (single isomer, unassigned) [II-9, 2-{3-[2-Amino-6-(1-{1-[6-(trifluoromethyl)pyridin-3-yl]propyl}-1H-pyrazol-4-yl)[1,2,4]triazolo[1,5-a]pyridin-8-yl]phenyl}propan-2-ol]
0.6 | 1.2 | CC(C)(O)c1cccc(-c2cc(-c3cnn(C(c4ccc(C(F)(F)F)nc4)C4CCOCC4)c3)cn3nc(N)nc23)c1 (single isomer, unassigned) [II-12, 2-{3-[2-Amino-6-(1-{tetrahydro-2H-pyran-4-yl[6-(trifluoromethyl)pyridin-3-yl]methyl}-1H-pyrazol-4-yl)[1,2,4]triazolo[1,5-a]pyridin-8-yl]phenyl}propan-2-ol]
